According to US7897602B2, “Indolinone compounds as kinase inhibitors” (Development Center for Biotechnology, priority 2009, dated 2011):

Tests used:
Assay type in all cases: biochemical
VEGFR2 kinase = target: T1, VEGFR2 kinase (Homo sapiens, UniProt P35968); experiment: VEGFR2 kinase assay (33P incorporation into Poly(Glu-Tyr)); conditions: 500 nM test compound; read-out: Inhibition at 500 nM (%) VEGFr-2
T1 construct: recombinant N-terminal 6×His-tagged VEGFR2 kinase domain construct expressed by baculovirus; 6xHis (N); made in house
T1 sequence (P35968 834-1162 limits assumed): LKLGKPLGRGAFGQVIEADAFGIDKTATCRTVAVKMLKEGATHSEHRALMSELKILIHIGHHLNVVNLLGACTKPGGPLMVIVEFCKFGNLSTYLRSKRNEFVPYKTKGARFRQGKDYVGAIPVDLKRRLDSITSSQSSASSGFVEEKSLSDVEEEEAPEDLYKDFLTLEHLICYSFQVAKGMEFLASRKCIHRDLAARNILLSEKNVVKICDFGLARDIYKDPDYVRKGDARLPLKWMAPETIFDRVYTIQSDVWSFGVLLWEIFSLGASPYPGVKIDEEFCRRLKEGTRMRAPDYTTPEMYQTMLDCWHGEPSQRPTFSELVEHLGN
Summary of the method: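 Recombinant baculovirus-expressed N-terminal His6-tagged VEGFR2 kinase domain (6.25 ng) phosphorylated poly(Glu-Tyr) 4:1 with 100 μM ATP plus [33P]-γ-ATP in MOPS pH 7.0, 30 °C, 30 min. Test compound was at 500 nM (4% DMSO). Filter-retained radioactivity relative to DMSO control gave % inhibition.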

PDGFR-β kinase = target: T2, PDGFR-β kinase (Homo sapiens, UniProt P09619); experiment: PDGFR-β kinase assay (33P incorporation into Poly(Glu-Tyr)); conditions: 500 nM test compound
T2 construct: recombinant N-terminal 6×His-tagged PDGFR-β kinase domain construct expressed by baculovirus; 6xHis (N); made in house
T2 sequence (P09619 600-962 limits assumed): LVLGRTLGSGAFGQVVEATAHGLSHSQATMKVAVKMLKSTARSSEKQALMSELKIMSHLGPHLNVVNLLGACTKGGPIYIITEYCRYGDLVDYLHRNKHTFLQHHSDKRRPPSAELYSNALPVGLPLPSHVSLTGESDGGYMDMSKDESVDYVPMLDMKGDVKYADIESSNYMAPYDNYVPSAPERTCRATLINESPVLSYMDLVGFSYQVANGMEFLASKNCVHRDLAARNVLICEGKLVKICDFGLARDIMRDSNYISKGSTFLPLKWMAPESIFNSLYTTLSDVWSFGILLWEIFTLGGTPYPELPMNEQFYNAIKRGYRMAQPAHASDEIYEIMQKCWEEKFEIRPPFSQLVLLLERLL
Summary of the method: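 His-tagged PDGFR-β kinase domain (55 ng) with Poly(Glu-Tyr) 4:1, 30 μM ATP plus [33P]-γ-ATP, pH 7.0 MnCl2 buffer, and 500 nM compound for 30 min at 30° C. Filter-bound radioactivity counted; inhibition computed relative to DMSO control.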

Flt3 kinase = target: T3, Flt3 kinase (Homo sapiens, UniProt P36888); experiment: Flt3 kinase assay (33P incorporation into Poly(Glu-Tyr)); conditions: 100 nM test compound; read-out: Inhibition at 100 nM (%) Flt-3
T3 construct: recombinant N-terminal 6×His-tagged Flt3 kinase domain construct expressed from baculovirus; 6xHis (N); made in house
T3 sequence (P36888 610-943 limits assumed): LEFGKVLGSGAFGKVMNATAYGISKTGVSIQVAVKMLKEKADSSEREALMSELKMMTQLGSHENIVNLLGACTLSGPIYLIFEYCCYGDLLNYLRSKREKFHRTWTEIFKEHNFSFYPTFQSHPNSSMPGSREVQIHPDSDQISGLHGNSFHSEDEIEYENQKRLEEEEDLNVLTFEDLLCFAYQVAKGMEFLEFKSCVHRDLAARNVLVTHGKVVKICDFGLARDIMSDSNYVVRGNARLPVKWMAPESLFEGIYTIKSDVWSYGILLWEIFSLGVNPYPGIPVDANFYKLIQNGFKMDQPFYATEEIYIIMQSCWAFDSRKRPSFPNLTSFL
Summary of the method: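 Baculovirus-expressed His-tagged Flt3 kinase domain (5 ng) with Poly(Glu-Tyr) 4:1 substrate, 100 μM ATP plus [33P]-γ-ATP, in MOPS pH 7.0 buffer, 30 min at 30 °C. Compound tested at a single 100 nM concentration; filter-bound radioactivity counted and percent inhibition calculated relative to DMSO control.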

Row | SMILES | inhibition at 0.5 µM (VEGFR2 kinase) | inhibition at 0.5 µM (PDGFR-β kinase) | inhibition at 0.1 µM (Flt3 kinase)
1 | CCOC(=O)CCc1c(/C=C2\C(=O)Nc3ccc(F)cc32)[nH]c2c1C(=O)CCC2 [DCB-70053, (Z)-5-fluoro-3-((3-(3-ethoxy-3-oxopropyl)-4-oxo-4,5,6,7-tetrahydro-1H-indol-2-yl)methylene)indolin-2-one] | 85.2% | 82.3% | 97.3%
2 | CCOC(=O)CCc1c(/C=C2\C(=O)Nc3cc(-c4ccc(O)cc4)ccc32)[nH]c2c1C(=O)CCC2 [DCB-70066, (Z)-6-(4-hydroxyphenyl)-3-((3-(3-ethoxy-3-oxopropyl)-4-oxo-4,5,6,7-tetrahydro-1H-indol-2-yl)methylene)indolin-2-one] | 94.3% | 85.4% | 38.6%
3 | CC(=O)Nc1ccc2c(c1)/C(=C/c1[nH]c3c(c1CCC(=O)O)C(=O)CCC3)C(=O)N2 [DCB-70104, (Z)-5-acetamido-3-((3-carboxyethyl-4-oxo-4,5,6,7-tetrahydro-1H-indol-2-yl)methylene)indolin-2-one] | 73.8% | 27.2% | 13.9%
4 | O=C(O)CCc1c(/C=C2\C(=O)Nc3cc(-c4ccc(O)c(O)c4)ccc32)[nH]c2c1C(=O)CCC2 [DCB-70078, (Z)-6-(3,4-dihydroxyphenyl)-3-((3-carboxyethyl-4-oxo-4,5,6,7-tetrahydro-1H-indol-2-yl)methylene)indolin-2-one] | 98.9% | 85% | 75%
5 | CCS(=O)(=O)c1ccc2c(c1)/C(=C/c1[nH]c3c(c1CCC(=O)O)C(=O)CCC3)C(=O)N2 [DCB-70116, (Z)-5-ethylsulfonyl-3-((3-carboxyethyl-4-oxo-4,5,6,7-tetrahydro-1H-indol-2-yl)methylene)indolin-2-one] | 47.9% | 11.2% | 19.4%
6 | O=C(O)CCc1c(/C=C2\C(=O)Nc3cc(-c4ccc(F)cc4)ccc32)[nH]c2c1C(=O)CCC2 [DCB-70099, (Z)-6-(4-fluorophenyl)-3-((3-carboxyethyl-4-oxo-4,5,6,7-tetrahydro-1H-indol-2-yl)methylene)indolin-2-one] | 79% | 74.6% | 6.9%
7 | CCOC(=O)CCc1c(/C=C2\C(=O)Nc3cc(-c4ccc5c(c4)OCO5)ccc32)[nH]c2c1C(=O)CCC2 [DCB-70128, (Z)-ethyl 3-(2-((6-(benzo[d][1,3]dioxol-5-yl)-2-oxoindolin-3-ylidene)methyl)-4-oxo-4,5,6,7-tetrahydro-1H-indol-3-yl)propanoate] | 19.3% | 9% | 3.2%
8 | CCOC(=O)CCc1c(/C=C2\C(=O)Nc3ccc(NC(=O)Nc4cccc5ccccc45)cc32)[nH]c2c1C(=O)CCC2 [DCB-70129, (Z)-ethyl 3-(2-((5-(3-naphthalen-1-ylureido)-2-oxoindolin-3-ylidene)methyl)-4-oxo-4,5,6,7-tetrahydro-1H-indol-3-yl)propanoate] | 88% | 1.4% | 12.3%
9 | O=C(O)CCc1c(/C=C2\C(=O)Nc3ccc(NC(=O)c4ccc(F)cc4)cc32)[nH]c2c1C(=O)CCC2 [DCB-70076, (Z)-5-(4-fluorobenzamido)-3-((3-carboxyethyl-4-oxo-4,5,6,7-tetrahydro-1H-indol-2-yl)methylene)indolin-2-one] | 59.8% | 26.9% | -3.1%
10 | O=C(O)CCc1c(/C=C2\C(=O)Nc3ccc(S(=O)(=O)Cc4ccccc4)cc32)[nH]c2c1C(=O)CCC2 [DCB-70071, (Z)-5-benzylsulfonyl-3-((3-carboxyethyl-4-oxo-4,5,6,7-tetrahydro-1H-indol-2-yl)methylene)indolin-2-one] | 91.8% | 43.1% | 21.2%
11 | CCOC(=O)CCc1c(/C=C2\C(=O)Nc3cc(-c4cc5ccccc5s4)ccc32)[nH]c2c1C(=O)CCC2 [DCB-70079, (Z)-6-(benzo[b]thiophen-2-yl)-3-((3-(3-ethoxy-3-oxopropyl)-4-oxo-4,5,6,7-tetrahydro-1H-indol-2-yl)methylene)indolin-2-one] | 15.6% | 9.6% | 1.1%
12 | CCOC(=O)CCc1c(/C=C2\C(=O)Nc3ccc(NC(=O)c4ccc([N+](=O)[O-])cc4)cc32)[nH]c2c1C(=O)CCC2 [DCB-70140, (Z)-ethyl 3-(2-((5-(4-nitrobenzamido)-2-oxoindolin-3-ylidene)methyl)-4-oxo-4,5,6,7-tetrahydro-1H-indol-3-yl)propanoate] | 27.6% | 7.5% | 5.5%
13 | CCOC(=O)CCc1c(/C=C2\C(=O)Nc3ccc(NS(=O)(=O)CC)cc32)[nH]c2c1C(=O)CCC2 [DCB-70118, (Z)-5-ethylsulfonamido-3-((3-(3-ethoxy-3-oxopropyl)-4-oxo-4,5,6,7-tetrahydro-1H-indol-2-yl)methylene)indolin-2-one] | 51.9% | 16.1% | 12.7%
14 | O=C(O)CCc1c(/C=C2\C(=O)Nc3ccc(NS(=O)(=O)c4ccc(F)cc4)cc32)[nH]c2c1C(=O)CCC2 [DCB-70145, (Z)-3-(2-((5-(4-fluorophenylsulfonamido)-2-oxoindolin-3-ylidene)methyl)-4-oxo-4,5,6,7-tetrahydro-1H-indol-3-yl)propanoic acid] | 66.6% | 14.5% | 24%
15 | CCS(=O)(=O)Nc1ccc2c(c1)/C(=C/c1[nH]c3c(c1CCC(=O)O)C(=O)CCC3)C(=O)N2 [DCB-70119, (Z)-5-ethylsulfonamido-3-((3-carboxyethyl-4-oxo-4,5,6,7-tetrahydro-1H-indol-2-yl)methylene)indolin-2-one] | 33.9% | 8.3% | -3.9%
16 | NS(=O)(=O)c1ccc2c(c1)/C(=C/c1[nH]c3c(c1CCC(=O)O)C(=O)CCC3)C(=O)N2 [DCB-70095, (Z)-5-sulfamoyl-3-((3-carboxyethyl-4-oxo-4,5,6,7-tetrahydro-1H-indol-2-yl)methylene)indolin-2-one] | 64.4% | 36.2% | 27.2%
17 | CCOC(=O)CCc1c(/C=C2\C(=O)Nc3ccc(NC(=O)c4ccc(F)cc4)cc32)[nH]c2c1C(=O)CCC2 [DCB-70074, (Z)-5-(4-fluorobenzamido)-3-((3-(3-ethoxy-3-oxopropyl)-4-oxo-4,5,6,7-tetrahydro-1H-indol-2-yl)methylene)indolin-2-one] | 25% | 6.6% | -1.3%
18 | CCOC(=O)CCc1c(/C=C2\C(=O)Nc3cc(-c4ccc(F)cc4)ccc32)[nH]c2c1C(=O)CCC2 [DCB-70098, (Z)-6-(4-fluorophenyl)-3-((3-(3-ethoxy-3-oxopropyl)-4-oxo-4,5,6,7-tetrahydro-1H-indol-2-yl)methylene)indolin-2-one] | 20.4% | 39.3% | 4.8%
19 | O=C(O)CCc1c(/C=C2\C(=O)Nc3ccc(F)cc32)[nH]c2c1C(=O)CCC2 [DCB-70055, (Z)-5-fluoro-3-((3-carboxyethyl-4-oxo-4,5,6,7-tetrahydro-1H-indol-2-yl)methylene)indolin-2-one] | 91.2% | 83.5% | 86.5%
